The values below are quoted from earlier work in patent US20200323830A1, “TREATMENT OF VIRAL HEMORRHAGIC FEVERS WITH ETORICOXIB” (priority 2019, published 2020).

Where two headings read alike, the source gives them in different places.

For data set [1] the following is noted: dose of more than 60 mg/kg/day before admission, dengue subjects.
The conditions of data set [2]: chronic therapy, 4 grams daily.
For data set [3] the following is noted: dengue infection.
For data set [4] the following is noted: intake within 24 h, dengue subjects.
The conditions of data set [5]: in vivo.
Assay in data set [6]: not given
This is another data set of the same source.

The conditions of data set [7]: for incidence of joint bleeding: 90 mg, hemophilic arthropathy.
For data set [8] the following is noted: chronic use for up to one year.
Data set [9] has as its target T1, COX-1 activity in circulating platelets (Homo sapiens, UniProt P23219).
T1 construct: COX-1 activity in circulating platelets; endogenous in cells; host or cells: circulating platelets of healthy subjects
As to conditions: therapeutic doses, healthy subjects.

For data set [10] the following is noted: versus placebo, acute pain after surgery.
The subject of data set [11] is platelet aggregation or bleeding time.
The conditions of data set [12]: oral, once daily.
For data set [13] the following is noted: monkeys; similar to diclofenac and ibuprofen.
The conditions of data set [14]: humans; similar to diclofenac and ibuprofen.

T1 sequence (P23219 24-599): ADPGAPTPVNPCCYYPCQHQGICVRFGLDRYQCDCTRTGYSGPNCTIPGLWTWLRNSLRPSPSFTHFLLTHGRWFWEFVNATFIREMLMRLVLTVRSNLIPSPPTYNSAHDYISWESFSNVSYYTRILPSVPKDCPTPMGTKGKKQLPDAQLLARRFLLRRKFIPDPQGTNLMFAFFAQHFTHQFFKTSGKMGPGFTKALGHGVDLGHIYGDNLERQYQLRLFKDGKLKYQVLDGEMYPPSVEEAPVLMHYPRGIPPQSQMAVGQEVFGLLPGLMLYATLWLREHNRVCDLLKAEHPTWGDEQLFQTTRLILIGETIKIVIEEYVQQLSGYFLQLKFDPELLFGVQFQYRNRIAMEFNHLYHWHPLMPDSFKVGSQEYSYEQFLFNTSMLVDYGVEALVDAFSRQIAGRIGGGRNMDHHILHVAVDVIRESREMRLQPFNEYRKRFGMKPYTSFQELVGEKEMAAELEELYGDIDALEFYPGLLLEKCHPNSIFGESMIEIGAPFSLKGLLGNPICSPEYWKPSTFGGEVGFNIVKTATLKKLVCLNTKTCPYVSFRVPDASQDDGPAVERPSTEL

Consider `CC(=O)Nc1ccc(O)cc1` [acetaminophen/paracetamol], for which the occurrence of hepatitis result in data set [1] is reported as “significantly associated with the occurrence of hepatitis”. Also, in [2], the “persons with peak serum aminotransferase values ≥3 times the upper normal limit” value is 39%. Also, the values for the transaminase elevation entry in data set [3] (median daily dose 1.5 g) and in data set [4] were “caused transaminase elevation” and “significantly associated with transaminase elevation”, respectively. For the same compound, in data set [3] (versus placebo), the “pain scores, analgesic intake, length of stay, duration of fever” value was “not significantly different from placebo”. Further, the “share of all cases of acute liver failure” value is recorded as 42% (academic centers of the Acute Liver Failure Study Group, 2005) and 41% (population-based, metropolitan Atlanta, 2007).

In the case of `Cc1ccc(-c2ncc(Cl)cc2-c2ccc(S(C)(=O)=O)cc2)cn1` [etoricoxib, 5-chloro-2-(6-methylpyridin-3-yl)-3-[4-(trideuteriomethylsulfonyl)phenyl]pyridine], the “GI tolerability and safety events” value in [5] is “significant improvements”. Further, in data set [6] (acute pain settings), the “median onset of action” value is 24 min. Also, the risk of bleeding result in data set [6] (acute pain studies) is “not associated with an increased risk of bleeding”. Also, the “duration of sustained efficacy” value in [6] (single dose) is 24 h. In addition, the entries for the “incidence of joint bleeding” value in data set [7] (6-month extension) and in data set [7] (6-week portion) were 78.9% and 66.7%, respectively. In addition, the “serious AEs” value in data set [7] (placebo-controlled portion, two events, both on etoricoxib) was 3.9%. The “subjects with elevated ALT or AST (≥3 times the upper limit of normal)” value in [8] is 1%. For the same compound, the “effect on COX-1 activity in circulating platelets” value in data set [9] is listed as “does not affect COX-1 activity in circulating platelets”. In the data set on COX-2 versus COX-1, the “COX-2 versus COX-1 selectivity” value is 106 fold. The “fever AEs” value in data set [10] is recorded as “fewer fever AEs than subjects on placebo”. Moreover, the “effect on platelet aggregation or bleeding time” value in data set [11] (doses up to 500 mg) is listed as “does not affect platelet aggregation or bleeding time”. For the same compound, the “effects on bleeding time or platelet aggregation” value in [11] (ex vivo whole-blood assays after multiple oral doses) is reported as “no important effects on bleeding time or platelet aggregation”. The half-life entry in data set [12] is “approximately 22 hours”.

In the case of `CS(=O)(=O)c1ccc(C2=C(c3ccccc3)C(=O)OC2)cc1` [rofecoxib], the antipyretic activity result in [13] and in data set [14] was “antipyretic activity” in each case.
